Reference: the NIST ThermoML archive (doi:10.1016/j.fluid.2005.11.013)

Test: wn = mass fraction of the nth substance listed
Settings: Liquid; for mass density: Other PVT measurement; for viscosity: 17000 kPa, high pressure falling cylinger viscometer

CC(=O)OC[C@H]1O[C@@H](OC(C)=O)[C@H](OC(C)=O)[C@@H](OC(C)=O)[C@H]1OC(C)=O [β-D-galactose pentaacetate] + O=C=O
mass density [kg/m3]
Settings | w1 = 0.206 | w1 = 0.259
308 K, 10600 kPa | 930 | 990
308 K, 11000 kPa | – | 1000
308 K, 11400 kPa | 940 | –
308 K, 11700 kPa | – | 1010
308 K, 12300 kPa | 950 | –
308 K, 12400 kPa | – | 1020
308 K, 13300 kPa | – | 1030
308 K, 13700 kPa | 960 | –
308 K, 14900 kPa | – | 1040
308 K, 15000 kPa | 970 | –
308 K, 15500 kPa | 970 | –
308 K, 17100 kPa | – | 1060
313 K, 11900 kPa | – | 970
313 K, 12100 kPa | 940 | –
313 K, 12600 kPa | – | 980
313 K, 12700 kPa | 940 | –
313 K, 13300 kPa | – | 980
313 K, 13600 kPa | 950 | –
313 K, 14200 kPa | – | 990
313 K, 15100 kPa | 960 | 1000
313 K, 15800 kPa | – | 1010
313 K, 16200 kPa | 970 | –
313 K, 17300 kPa | – | 1020
313 K, 17500 kPa | 980 | –
313 K, 18500 kPa | 980 | –
313 K, 19400 kPa | 980 | –
313 K, 19800 kPa | – | 1040
318 K, 14400 kPa | 930 | –
318 K, 15100 kPa | 940 | –
318 K, 15900 kPa | 940 | –
318 K, 16700 kPa | 950 | –
318 K, 17900 kPa | 960 | –
318 K, 20300 kPa | 970 | –
323 K, 15500 kPa | 930 | –
323 K, 16000 kPa | 940 | –
323 K, 16600 kPa | 940 | –
323 K, 17700 kPa | 950 | –
323 K, 18900 kPa | 960 | –

318 K
Settings | viscosity [mPa·s]
w1 = 0.18 | 0.095
w1 = 0.25 | 0.103
